# From patent US10724044B2, “Reversible genic male sterility in compositae” (priority 2013, dated 2020)
# Entries after “also recorded” stand apart in the source; their conditions may differ.
# Columns and labels:
# [1] = test system: homozygous mutant lettuce plant (Lactuca sativa), having a mutated version of the OPR3 gene; assay: Reversal of male sterility in homozygous OPR3 mutant lettuce by spraying young flower buds; type: in vivo; conditions: for restoration of male fertility in the F2 generation: F2 of cross of NCIMB 42060 plants with wild type lettuce, treatment as in Example 1; for seed production through selfing: 200 μM spray on inflorescences from early bolting stage, versus mock-treated controls (FIG. 1)
# Description: A mutant lettuce plant (Lactuca sativa), having a mutated version of the OPR3 gene, was obtained by means of chemical mutagenesis and subsequent TILLING screening of about 3,000 M2 plants.
# Phenotypically this mutant lettuce plant was indistinguishable from wild type lettuce plants, when the mutation was present in a heterozygous state. […] The few pollen grains that developed in such homozygous mutants were not functional.
# From the early bolting stage the inflorescences were sprayed 5 times per week, for a total of 3 weeks.
# [2] = test system: homozygous mutant endive plant (Cichorium endivia), having a mutated version of the OPR3 gene; assay: Reversal of male sterility in homozygous OPR3 mutant endive by treating young flower buds; type: in vivo; conditions: for restoration of male fertility in the F2 generation: F2 of cross of endive plants of the invention with wild type endive, treatment as in Example 3; for flower colour of flowers developed from treated buds: homozygous mutants (pale flowers untreated), about 3.5 months; for flower colour of flowers developed from treated buds / male fertility (functional pollen, seed set through self-pollination): 200 μM (0.2 mM) with 0.025% Zipper surfactant sprayed daily on young flower buds; for male fertility (functional pollen, seed set through self-pollination): homozygous mutants, controls remained male sterile
# Description: A mutant endive plant (Cichorium endivia), having a mutated version of the OPR3 gene, was obtained by means of chemical mutagenesis and subsequent TILLING screening of about 10,000 M2 plants.
# Phenotypically this mutant endive plant was indistinguishable from wild type endive plants, when the mutation was present in a heterozygous state. […] The pollen grains that developed in such homozygous mutants were unable to germinate and therefore dysfunctional.
# Blue was the wild type flower colour in this endive background.
# [3] = test system: Arabidopsis thaliana with mutations in the OPR3 gene; conditions: Arabidopsis OPR3 mutants, flower buds treated; cited from earlier work
Compound,restoration of male fertility in the F2 generation [1],"restoration of male fertility ([1]; homozygous mutants, 200 μM (0.2 mM) aqueous solution plus 0.025% Zipper surfactant sprayed on young flower buds, 5 times per week for 3 weeks)",seed production through selfing ([1]; homozygous mutants),"seed production through selfing ([1]; homozygous mutants, listed as MeJA)",restoration of male fertility in the F2 generation [2],flower colour of flowers developed from treated buds [2],flower colour of flowers developed from treated buds ([2]; listed as MeJA),"male fertility (functional pollen, seed set through self-pollination) [2]","male fertility (functional pollen, seed set through self-pollination) ([2]; listed as MeJA)",effect of other application methods than spraying ([2]; solution painted onto the surface of young flower buds with a fine brush),restoration of male fertility [3]
CC/C=C\CC1C(=O)CCC1CC(=O)OC (centres unmarked) [methyl jasmonate],sufficient to restore male fertility,sufficient to restore male fertility,has produced seeds through selfing,produced seeds in a subset of their flowers,sufficient to restore male fertility,Its colour has changed to blue,developed into blue flowers,it has become male-fertile,"produced viable, functional pollen and were able to set seed through self-pollination; also recorded: could be overcome",comparable effects,could be restored
"CC/C=C\C[C@H]1C(=O)CC[C@@H]1CC(=O)O [jasmonic acid, (3R,7S)-jasmonic acid]",sufficient to restore male fertility,–,–,–,sufficient to restore male fertility,–,–,had the same effect,–,–,–
